# Measurements from paper PMC10825183 (Nature Communications, 2024).
# “And” between values parts separate entries of the source, which are not always exact repeats. Identical values can stand only once. Like-named read-outs stand apart in the source and are kept apart here.
# Legend:
# human HCN2 CNBD ΔDE’ = target: T1, human HCN2 CNBD ΔDE’ (Homo sapiens, UniProt Q9UL51); experiment: Isothermal titration calorimetry (ITC), CNBD ΔDE’
# T1 sequence (Q9UL51 521-672): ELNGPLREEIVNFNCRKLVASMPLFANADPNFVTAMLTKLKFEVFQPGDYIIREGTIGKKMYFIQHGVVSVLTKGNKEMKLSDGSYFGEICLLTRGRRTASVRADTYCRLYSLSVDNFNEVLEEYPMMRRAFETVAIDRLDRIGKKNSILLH
# rbHCN4 ΔC-term (1-758) = rbHCN4 ΔC-term (1-758) (Oryctolagus cuniculus, UniProt Q9TV66); details: mean ± SEM
# rbHCN4 ΔC-term (1-758), sequence (Q9TV66 1-758, stated change not applied): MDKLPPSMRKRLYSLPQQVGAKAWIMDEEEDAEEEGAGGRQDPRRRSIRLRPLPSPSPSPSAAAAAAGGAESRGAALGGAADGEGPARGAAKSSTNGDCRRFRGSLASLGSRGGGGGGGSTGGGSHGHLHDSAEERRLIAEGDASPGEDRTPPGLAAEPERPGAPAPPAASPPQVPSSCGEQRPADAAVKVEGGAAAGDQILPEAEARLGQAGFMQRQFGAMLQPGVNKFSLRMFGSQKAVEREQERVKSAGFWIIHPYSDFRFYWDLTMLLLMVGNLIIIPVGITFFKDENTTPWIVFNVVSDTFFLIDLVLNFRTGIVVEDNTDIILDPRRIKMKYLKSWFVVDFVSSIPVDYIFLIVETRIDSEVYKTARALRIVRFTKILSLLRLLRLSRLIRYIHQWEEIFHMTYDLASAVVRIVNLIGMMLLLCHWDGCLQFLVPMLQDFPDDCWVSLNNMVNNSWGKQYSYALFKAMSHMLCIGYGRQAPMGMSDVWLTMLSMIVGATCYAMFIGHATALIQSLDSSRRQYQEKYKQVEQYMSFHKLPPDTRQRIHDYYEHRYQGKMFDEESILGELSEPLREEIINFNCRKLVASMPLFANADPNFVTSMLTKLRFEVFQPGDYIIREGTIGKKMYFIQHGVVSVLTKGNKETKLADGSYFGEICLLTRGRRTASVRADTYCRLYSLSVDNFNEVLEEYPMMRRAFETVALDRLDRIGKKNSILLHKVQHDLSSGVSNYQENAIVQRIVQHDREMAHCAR
# human HCN2 CNBD ΔE = target: T2, human HCN2 CNBD ΔE (Homo sapiens, UniProt Q9UL51); experiment: Isothermal titration calorimetry (ITC), CNBD ΔE; assay type: binding; details: mean ± SEM, n = 3
# T2 sequence (Q9UL51 521-681): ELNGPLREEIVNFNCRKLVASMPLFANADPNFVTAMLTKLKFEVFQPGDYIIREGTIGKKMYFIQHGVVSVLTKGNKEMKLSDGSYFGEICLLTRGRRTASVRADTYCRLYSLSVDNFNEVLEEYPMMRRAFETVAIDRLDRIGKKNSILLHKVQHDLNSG
# hHCN2 CNBD D698A = hHCN2 CNBD D698A (Homo sapiens, UniProt Q9UL51, D698A); experiment: biochemical
# hHCN2 CNBD D698A, sequence (Q9UL51 521-706 D698A): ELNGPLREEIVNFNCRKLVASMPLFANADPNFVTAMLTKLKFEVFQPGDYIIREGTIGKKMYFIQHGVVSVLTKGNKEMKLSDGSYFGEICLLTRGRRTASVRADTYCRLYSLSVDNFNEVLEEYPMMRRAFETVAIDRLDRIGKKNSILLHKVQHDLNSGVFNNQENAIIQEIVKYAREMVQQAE
# [1] = test system: full-length HCN2 with a C-linker and CNBD from HCN4; details: ref Xu et al, JBC, 2010; cited from earlier work
# human HCN2 CNBD ΔDE = target: T3, human HCN2 CNBD ΔDE (Homo sapiens, UniProt Q9UL51); experiment: Isothermal titration calorimetry (ITC), CNBD ΔDE; details: cAMP titrated into 20 µM CNBD, 25 °C, mean ± SEM, n = 3
# T3 sequence (Q9UL51 521-667): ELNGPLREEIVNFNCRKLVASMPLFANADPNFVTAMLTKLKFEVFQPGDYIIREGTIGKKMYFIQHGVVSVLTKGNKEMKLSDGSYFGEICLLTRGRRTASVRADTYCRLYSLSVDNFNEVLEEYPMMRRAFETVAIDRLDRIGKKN
# hHCN2 CNBD R662A = hHCN2 CNBD R662A (Homo sapiens, UniProt Q9UL51, R662A); experiment: biochemical
# hHCN2 CNBD R662A, sequence (Q9UL51 521-706 R662A): as the sequence (Q9UL51 521-706 D698A) above, with R142A, A178D counted along it
# rbHCN4 ΔDE (1-718) = rbHCN4 ΔDE (1-718) (Oryctolagus cuniculus, UniProt Q9TV66)
# rbHCN4 D750A = rbHCN4 D750A (Oryctolagus cuniculus, UniProt Q9TV66, D750A)
# rbHCN4 D750A, sequence (Q9TV66 whole entry D750A): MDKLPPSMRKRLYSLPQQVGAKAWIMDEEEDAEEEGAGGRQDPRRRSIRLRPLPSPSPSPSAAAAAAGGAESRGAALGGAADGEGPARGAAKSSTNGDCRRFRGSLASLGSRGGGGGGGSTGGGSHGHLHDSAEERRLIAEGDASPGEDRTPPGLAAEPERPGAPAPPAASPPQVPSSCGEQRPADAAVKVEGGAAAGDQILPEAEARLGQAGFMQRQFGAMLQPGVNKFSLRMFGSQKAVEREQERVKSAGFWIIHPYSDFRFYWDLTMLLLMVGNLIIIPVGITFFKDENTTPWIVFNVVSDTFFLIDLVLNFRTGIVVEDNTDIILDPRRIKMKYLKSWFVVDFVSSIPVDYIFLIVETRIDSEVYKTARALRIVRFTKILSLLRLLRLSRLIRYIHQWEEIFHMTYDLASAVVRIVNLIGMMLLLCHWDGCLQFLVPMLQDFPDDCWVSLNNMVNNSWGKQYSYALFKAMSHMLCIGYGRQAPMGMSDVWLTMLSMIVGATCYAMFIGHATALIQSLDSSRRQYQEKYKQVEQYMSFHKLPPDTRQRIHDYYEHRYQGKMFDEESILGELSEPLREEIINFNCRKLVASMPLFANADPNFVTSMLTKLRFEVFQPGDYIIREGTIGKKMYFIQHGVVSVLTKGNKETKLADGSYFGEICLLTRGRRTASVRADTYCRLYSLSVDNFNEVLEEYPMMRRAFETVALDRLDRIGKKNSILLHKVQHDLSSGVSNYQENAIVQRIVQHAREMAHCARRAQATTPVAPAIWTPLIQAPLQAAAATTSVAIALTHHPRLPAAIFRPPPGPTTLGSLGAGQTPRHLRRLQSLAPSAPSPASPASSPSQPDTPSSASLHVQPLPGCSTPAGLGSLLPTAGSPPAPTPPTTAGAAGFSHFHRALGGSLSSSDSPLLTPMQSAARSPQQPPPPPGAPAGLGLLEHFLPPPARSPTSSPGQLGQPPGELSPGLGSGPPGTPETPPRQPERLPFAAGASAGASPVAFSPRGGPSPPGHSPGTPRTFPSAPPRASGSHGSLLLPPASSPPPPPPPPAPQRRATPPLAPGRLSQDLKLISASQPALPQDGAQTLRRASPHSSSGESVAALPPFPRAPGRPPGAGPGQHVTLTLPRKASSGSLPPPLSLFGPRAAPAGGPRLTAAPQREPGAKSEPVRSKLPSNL
# rbHCN4 ΔE (1-733) = target: T4, rbHCN4 ΔE (1-733) (Oryctolagus cuniculus, UniProt Q9TV66); experiment: Whole-cell patch clamp in HEK293T cells, HCN4 ΔE; assay type: cell-based, rabbit
# T4 construct: rbHCN4 ΔE (1-733); expressed in transfected cells; host or cells: HEK293T
# T4 sequence (Q9TV66 1-733): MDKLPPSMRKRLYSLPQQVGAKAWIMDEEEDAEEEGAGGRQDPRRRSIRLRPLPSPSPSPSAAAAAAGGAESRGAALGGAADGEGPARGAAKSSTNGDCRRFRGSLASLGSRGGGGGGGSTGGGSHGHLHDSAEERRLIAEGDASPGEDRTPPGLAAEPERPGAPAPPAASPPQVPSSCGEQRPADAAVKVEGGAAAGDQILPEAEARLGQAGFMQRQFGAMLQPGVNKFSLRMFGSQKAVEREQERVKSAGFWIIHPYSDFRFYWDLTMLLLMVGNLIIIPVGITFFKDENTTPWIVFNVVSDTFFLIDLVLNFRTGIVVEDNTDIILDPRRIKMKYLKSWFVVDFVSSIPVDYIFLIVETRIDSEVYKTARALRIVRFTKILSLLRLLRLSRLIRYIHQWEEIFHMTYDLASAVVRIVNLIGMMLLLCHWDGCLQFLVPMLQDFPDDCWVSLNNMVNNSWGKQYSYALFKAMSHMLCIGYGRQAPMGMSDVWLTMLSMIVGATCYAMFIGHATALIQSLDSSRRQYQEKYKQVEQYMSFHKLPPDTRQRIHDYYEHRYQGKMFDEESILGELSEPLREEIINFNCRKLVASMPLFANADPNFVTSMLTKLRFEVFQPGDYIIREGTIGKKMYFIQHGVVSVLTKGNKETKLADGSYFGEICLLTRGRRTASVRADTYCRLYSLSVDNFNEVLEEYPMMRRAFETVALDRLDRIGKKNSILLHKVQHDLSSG
# human HCN2 CNBD ΔC-term = target: T5, human HCN2 CNBD ΔC-term (Homo sapiens, UniProt Q9UL51); experiment: Isothermal titration calorimetry (ITC), CNBD ΔC-term; details: mean ± SEM, n = 3
# T5 sequence (Q9UL51 521-706): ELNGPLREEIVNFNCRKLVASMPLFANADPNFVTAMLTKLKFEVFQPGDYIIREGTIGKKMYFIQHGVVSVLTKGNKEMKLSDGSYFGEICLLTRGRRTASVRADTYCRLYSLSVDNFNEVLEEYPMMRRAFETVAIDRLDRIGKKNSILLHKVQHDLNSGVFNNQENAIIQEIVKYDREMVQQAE
# [2] = target: isolated C-linker and CNBD; details: ref Chow et al (2012), cited from earlier work
# HCN4 = details: cited from earlier work
# rbHCN4 ΔDE’ (1-723) = rbHCN4 ΔDE’ (1-723) (Oryctolagus cuniculus, UniProt Q9TV66)
# [3] = KD, cAMP titrated into 20 µM CNBD, 25 °C
# [4] = KD of individual experiments (source data Fig. 4e), cAMP titrant, unit inferred
# [5] = KD, cAMP titrated into 20 µM CNBD, 25 °C, mean ± SEM, n = 3
# [6] = 5 µM cAMP in pipette, mean ± SEM
# [7] = Hill fit of shift in V1/2 vs cAMP concentration
compound,measurement,setting,value
"Nc1ncnc2c1ncn2[C@@H]1O[C@@H]2COP(=O)(O)O[C@H]2[C@H]1O [cAMP, Adenosine 3′,5′-cyclic monophosphate]",Kd,"human HCN2 CNBD ΔDE’; cAMP titrated into 20 µM CNBD, 25 °C, mean ± SEM, n = 3",1200 ± 30 nM
same,Kd,"human HCN2 CNBD ΔDE’; representative sample (Fig. 2d), cAMP titrant, single ITC experiment",1200 nM
same,stoichiometry (N),"human HCN2 CNBD ΔDE’; cAMP titrant, mean ± SEM, n = 3",0.8 ± 0.1
same,V1/2 with cAMP,rbHCN4 ΔC-term (1-758); 1 µM cAMP in pipette,-88.9 ± 1.5 mV
same,k (inverse slope factor) with cAMP,rbHCN4 ΔC-term (1-758); 1 µM cAMP,9.6 ± 0.5 mV
same,Kd,human HCN2 CNBD ΔE; [3],1200 ± 100 nM
same,stoichiometry (N),human HCN2 CNBD ΔE; cAMP titrant,1.0 ± 0.1
same,Kd,hHCN2 CNBD D698A; [4],1700 nM and 1600 nM and 1300 nM
same,Kd,hHCN2 CNBD D698A; [5],1500 ± 100 nM
same,Kd,"hHCN2 CNBD D698A; KD, representative sample (Fig. 4d), cAMP titrant, single ITC experiment",1000 nM
same,EC50,[1],240 nM
same,Kd,human HCN2 CNBD ΔDE,9500 ± 700 nM
same,Kd,hHCN2 CNBD R662A; [4],1080 nM and 980 nM and 1100 nM
same,Kd,hHCN2 CNBD R662A; [5],1000 ± 30 nM
same,V1/2 with cAMP,rbHCN4 ΔDE (1-718); [6],-102.4± 0.6 mV
same,k (inverse slope factor) with cAMP,"rbHCN4 ΔDE (1-718); 5 µM cAMP, mean ± SEM",7.6 ± 0.3 mV
same,Hill coefficient (nH),rbHCN4 ΔDE (1-718); [7],1
same,V1/2 with cAMP,rbHCN4 D750A; [6],-96 ±1.7 mV
same,k (inverse slope factor) with cAMP,"rbHCN4 D750A; 5 µM cAMP, mean ± SEM",9 ± 0.5 mV
same,Hill coefficient (nH),rbHCN4 D750A; [7],0.8
same,V1/2 with cAMP,rbHCN4 ΔE (1-733); [6],-97.2 ± 0.6 mV
same,k (inverse slope factor) with cAMP,"rbHCN4 ΔE (1-733); 5 µM cAMP, mean ± SEM",9.1 ± 1.2 mV
same,V1/2 + cAMP,"rbHCN4 ΔE (1-733); 60 µM cAMP in pipette, mean ± SEM",-81.1 ± 0.8 mV
same,k + cAMP,"rbHCN4 ΔE (1-733); 60 µM cAMP, mean ± SEM",9.8 ± 0.8 mV
same,Hill coefficient (nH),rbHCN4 ΔE (1-733); [7],0.9
same,Kd,human HCN2 CNBD ΔC-term; [3],300 ± 10 nM
same,stoichiometry (N),human HCN2 CNBD ΔC-term; cAMP titrant,0.4 ± 0.1
same,Kd,"[2]; read-out: binding affinity, higher affinity, protein at ~100uM or greater, predominantly tetramers",120 nM
same,Kd,"[2]; read-out: binding affinity, lower affinity, protein at ~100uM or greater, predominantly tetramers",1500 nM
same,Kd,"[2]; read-out: binding affinity, single lower affinity, first two helices of the C-linker removed, monomeric protein",~1800 nM
same,Kd,"[2]; read-out: binding affinity, single lower affinity, lower protein concentrations, tetramers less frequent",~1500 nM
same,EC50,"HCN4; ref Baruscotti et al, 2017",1670 nM
same,EC50,"HCN4; ref Milanesi et al, 2006",1530 nM
same,EC50,HCN4; ref Moller et al 2014,820 nM
same,V1/2 with cAMP,rbHCN4 ΔDE’ (1-723); [6],-95.5 ± 0.8 mV
same,k (inverse slope factor) with cAMP,"rbHCN4 ΔDE’ (1-723); 5 µM cAMP, mean ± SEM",8.4 ± 0.1 mV
same,Hill coefficient (nH),rbHCN4 ΔDE’ (1-723); [7],1
